In ChEMBL document CHEMBL1152405, “Bis-anthracenyl isoxazolyl amides have enhanced anticancer activity” (Bioorg Med Chem Lett, 2009):

What was measured:
Assay type in all cases: functional
[1] = system: LOX IMVI; experiment: Growth inhibition of human LOXIMVI cells after 24 hrs by MTT assay
[2] = system: 786-0; experiment: Growth inhibition of human 786-0 cells after 24 hrs by MTT assay; details: 786-0, 24 h
[3] = system: RXF 393; experiment: Growth inhibition of human RXF393 cells after 24 hrs by MTT assay; details: RXF 393, 24 h
[4] = system: OVCAR-8; experiment: Growth inhibition of human OVCAR8 cells at 10 uM after 24 hrs by MTT assay relative to control; set-up: scale not given: the % may be the effect or the level left
[5] = system: MDA-MB-231; experiment: Growth inhibition of human MDA-MB-231 cells at 10 uM after 24 hrs by MTT assay relative to control; set-up: scale not given: the % may be the effect or the level left
[6] = system: SNB-75; experiment: Growth inhibition of human SNB75 cells after 24 hrs by MTT assay; details: SNB-75, 24 h
[7] = system: SK-MEL-28; experiment: Growth inhibition of human SK-MEL-28 cells after 24 hrs by MTT assay; details: SK-MEL-28, 24 h
[8] = system: PC-3; experiment: Growth inhibition of human PC3 cells after 24 hrs by MTT assay; details: PC-3, 24 h
[9] = system: NCI/ADR-RES; experiment: Growth inhibition of human NCI/ADR-RES cells at 10 uM after 24 hrs by MTT assay relative to control; set-up: scale not given: the % may be the effect or the level left
[10] = system: HCT-116; experiment: Growth inhibition of human HCT116 cells after 24 hrs by MTT assay; details: HCT-116, 24 h
[11] = system: SK-OV-3; experiment: Growth inhibition of human SKOV3 cells after 24 hrs by MTT assay; details: SK-OV-3, 24 h
[12] = system: NCI-H23; experiment: Growth inhibition of human NCI-H23 cells at 10 uM after 24 hrs by MTT assay relative to control; set-up: scale not given: the % may be the effect or the level left
[13] = system: BT-549; experiment: Growth inhibition of human BT549 cells after 24 hrs by MTT assay; details: BT-549, 24 h
[14] = system: MDA-MB-435; experiment: Growth inhibition of human MDA-MB-435 cells after 24 hrs by MTT assay; details: MDA-MB-435, 24 h
[15] = system: MDA-MB-468; experiment: Growth inhibition of human MDA-MB-468 cells at 10 uM after 24 hrs by MTT assay relative to control; set-up: scale not given: the % may be the effect or the level left
[16] = system: HOP-62; experiment: Growth inhibition of human HOP62 cells after 24 hrs by MTT assay; details: HOP-62, 24 h
[17] = system: OVCAR-8; experiment: Growth inhibition of human OVCAR8 cells after 24 hrs by MTT assay; details: OVCAR-8, 24 h
[18] = system: SN12C; experiment: Growth inhibition of human SN12C cells after 24 hrs by MTT assay
[19] = system: COLO 205; experiment: Growth inhibition of human COLO205 cells at 10 uM after 24 hrs by MTT assay relative to control; set-up: scale not given: the % may be the effect or the level left
[20] = system: EKVX; experiment: Growth inhibition of human EKVX cells after 24 hrs by MTT assay
[21] = system: UO-31; experiment: Growth inhibition of human UO31 cells at 10 uM after 24 hrs by MTT assay relative to control; set-up: scale not given: the % may be the effect or the level left
[22] = system: HOP-62; experiment: Growth inhibition of human HOP62 cells at 10 uM after 24 hrs by MTT assay relative to control; set-up: scale not given: the % may be the effect or the level left
[23] = system: NCI-H322M; experiment: Growth inhibition of human NCI-H322M cells after 24 hrs by MTT assay
[24] = system: EKVX; experiment: Growth inhibition of human EKVX cells at 10 uM after 24 hrs by MTT assay relative to control; set-up: scale not given: the % may be the effect or the level left
[25] = system: OVCAR-5; experiment: Growth inhibition of human OVCAR5 cells at 10 uM after 24 hrs by MTT assay relative to control; set-up: scale not given: the % may be the effect or the level left
[26] = system: MCF7; experiment: Growth inhibition of human MCF7 cells at 10 uM after 24 hrs by MTT assay relative to control; set-up: scale not given: the % may be the effect or the level left
[27] = system: A498; experiment: Growth inhibition of human A498 cells at 10 uM after 24 hrs by MTT assay relative to control; set-up: scale not given: the % may be the effect or the level left
[28] = system: LOX IMVI; experiment: Growth inhibition of human LOXIMVI cells at 10 uM after 24 hrs by MTT assay relative to control; set-up: scale not given: the % may be the effect or the level left
[29] = system: COLO 205; experiment: Growth inhibition of human COLO205 cells after 24 hrs by MTT assay; details: COLO 205, 24 h
[30] = system: SF-295; experiment: Growth inhibition of human SF295 cells after 24 hrs by MTT assay; details: SF-295, 24 h
[31] = system: K562; experiment: Growth inhibition of human K562 cells after 24 hrs by MTT assay; details: K562, 24 h
[32] = system: SF-539; experiment: Growth inhibition of human SF539 cells after 24 hrs by MTT assay; details: SF-539, 24 h
[33] = system: SN12C; experiment: Growth inhibition of human SN12C cells at 10 uM after 24 hrs by MTT assay relative to control; set-up: scale not given: the % may be the effect or the level left
[34] = system: M14; experiment: Growth inhibition of human M14 cells at 10 uM after 24 hrs by MTT assay relative to control; set-up: scale not given: the % may be the effect or the level left
[35] = read-out: LC50 (the source's name)
[36] = read-out: pLC50 (the source's name) (converted)

Cc1onc(-c2c3ccccc3c(Cl)c3ccccc23)c1C(=O)Nc1cc(C(=O)NCCCN(C)CCCNC(=O)c2cc(NC(=O)c3c(-c4c5ccccc5c(Cl)c5ccccc45)noc3C)cn2C)n(C)c1
TGI [1]: 2.96 µM
GI50 ([1]; read-out: GI50): 1.38 µM
GI50 ([1]; read-out: pGI50 (converted)): 1.38 µM
TGI [2]: 4.94 µM
GI50 ([2]; read-out: GI50): 2.13 µM
CC50 [2, 35]: 16.7 µM
GI50 ([2]; read-out: pGI50 (converted)): 2.14 µM
CC50 [2, 36]: 16.6 µM
TGI [3]: 3.3 µM
GI50 ([3]; read-out: GI50): 1.63 µM
GI50 ([3]; read-out: pGI50 (converted)): 1.62 µM
Activity [4]: -63.16%
Activity [5]: -100%
TGI [6]: 2.71 µM
GI50 ([6]; read-out: GI50): 1.07 µM
CC50 [6, 35]: 6.84 µM
GI50 ([6]; read-out: pGI50 (converted)): 1.07 µM
CC50 [6, 36]: 6.92 µM
TGI [7]: 2.98 µM
GI50 ([7]; read-out: GI50): 1.63 µM
CC50 [7, 35]: 5.46 µM
GI50 ([7]; read-out: pGI50 (converted)): 1.62 µM
CC50 [7, 36]: 5.5 µM
TGI [8]: 2.69 µM
GI50 ([8]; read-out: GI50): 1.4 µM
CC50 [8, 35]: 5.19 µM
GI50 ([8]; read-out: pGI50 (converted)): 1.41 µM
CC50 [8, 36]: 5.25 µM
Activity [9]: 47.82%
TGI [10]: 2.88 µM
GI50 ([10]; read-out: GI50): 1.54 µM
GI50 ([10]; read-out: pGI50 (converted)): 1.55 µM
TGI [11]: 2.87 µM
GI50 ([11]; read-out: GI50): 1.54 µM
CC50 [11, 35]: 5.36 µM
GI50 ([11]; read-out: pGI50 (converted)): 1.55 µM
CC50 [11, 36]: 5.37 µM
Activity [12]: -73.08%
TGI [13]: 10.2 µM
GI50 ([13]; read-out: GI50): 2.92 µM
CC50 [13, 35]: 100 µM
GI50 ([13]; read-out: pGI50 (converted)): 2.95 µM
CC50 [13, 36]: > 100 µM
TGI [14]: 3.4 µM
GI50 ([14]; read-out: GI50): 1.9 µM
GI50 ([14]; read-out: pGI50 (converted)): 1.91 µM
Activity [15]: -100%
TGI [16]: 2.65 µM
GI50 ([16]; read-out: GI50): 1.36 µM
CC50 [16, 35]: 5.14 µM
GI50 ([16]; read-out: pGI50 (converted)): 1.35 µM
CC50 [16, 36]: 5.13 µM
TGI [17]: 4.09 µM
GI50 ([17]; read-out: GI50): 1.97 µM
GI50 ([17]; read-out: pGI50 (converted)): 2 µM
TGI [18]: 3.14 µM
GI50 ([18]; read-out: GI50): 1.65 µM
GI50 ([18]; read-out: pGI50 (converted)): 1.66 µM
Activity [19]: -100%
TGI [20]: 5.27 µM
GI50 ([20]; read-out: GI50): 1.91 µM
CC50 [20, 35]: 100 µM
GI50 ([20]; read-out: pGI50 (converted)): 1.91 µM
CC50 [20, 36]: > 100 µM
Activity [21]: -80.7%
Activity [22]: -87.55%
TGI [23]: 4.87 µM
GI50 ([23]; read-out: GI50): 2.18 µM
CC50 [23, 35]: 14.6 µM
GI50 ([23]; read-out: pGI50 (converted)): 2.19 µM
CC50 [23, 36]: 14.5 µM
Activity [24]: -58.5%
Activity [25]: -85.02%
Activity [26]: -100%
Activity [27]: 103.19%
Activity [28]: -100%
TGI [29]: 2.48 µM
GI50 ([29]; read-out: GI50): 1.24 µM
CC50 [29, 35]: 4.98 µM
GI50 ([29]; read-out: pGI50 (converted)): 1.23 µM
CC50 [29, 36]: 5.01 µM
TGI [30]: 3.33 µM
GI50 ([30]; read-out: GI50): 1.67 µM
GI50 ([30]; read-out: pGI50 (converted)): 1.66 µM
TGI [31]: 2.19 µM
GI50 ([31]; read-out: GI50): 0.822 µM
CC50 [31, 35]: 5.14 µM
GI50 ([31]; read-out: pGI50 (converted)): 0.813 µM
CC50 [31, 36]: 5.13 µM
TGI [32]: 2.72 µM
GI50 ([32]; read-out: GI50): 1.42 µM
CC50 [32, 35]: 5.22 µM
GI50 ([32]; read-out: pGI50 (converted)): 1.41 µM
CC50 [32, 36]: 5.25 µM
Activity [33]: -96.46%
Activity [34]: -92.68%
